Results published in patent US9522139B2, “Fructose 1, 6-biphosphatases as new targets for diagnosing and treating breast cancer brain metastasis” (The University of Houston System, priority 2011, dated 2016).

Key:
MDA-MB-231Br3 cells [1] = assay: Cell survival assay (trypan blue uptake) in glucose-free medium; type: cell-based
Experimental: By way of non-limiting example, to test the role of BCAAs in the survival of brain metastatic breast cancer cells, changes in the concentrations of BCAAs over time can be measured in MDA-MB-231 and MDA-MB-231Br3 cells when cultured in a glucose-free medium. […] To measure the ability of these two types of cells to oxidize BCAAs, ^14C-Leucine can be added to the culture media and the resulting ^14CO2 measured after 8 hours of incubation. […] To investigate the mechanism by which brain metastatic cells gain such higher activity of BCAA oxidation, the levels of the rate limiting enzymes of BCAA oxidation, branched chain ketoacids dehydrogenase E1 subunit (BCKDH-E1), the inactivated form of BCKDH-E1, pSer293-BCDKH-E1 (phosphorylated at serine 293 of the E1 subunit), the BCKDH inactivating kinase, and the branched chain ketoacids dehydrogenase kinase (BDK) can be determined in both brain metastatic cells and parental cells. […] Also, to test the pro-survival role of BCAAs in MDA-MB-231Br3 cells, BCAAs can be removed from the glucose-free medium containing glutamine. […] For these tests, trypanblue uptake can used to identify dead cells, and triplicates of samples can be used in each group.
Cells were seeded in 6-well plates in full MEM medium containing 5% dialyzed FBS and supplemented with 100 IU/ml penicillin and 100 μg/ml streptomycin (Invitrogen, CA, USA) and 292 ug/ml L-Glutamine (Invitrogen, CA, USA). Medium were replaced with modified MEM after 12 hours. Modified MEM contains basic formula of 5% dialyzed FBS and 100 IU/ml penicillin and 100 μg/ml streptomycin, other supplements like glutamine, glucose, etc. were added in the basic formula according to different needs of experimental groups. Both cell culture medium and trysinized cells were collected after 48 hours and stained with trypan blue. Viability counting was counted by Countess® Automated Cell Counter (Invitrogen, CA, USA).

MDA-MB-231Br3 cells [2] = assay: Resistance to chemotherapeutic reagents, brain metastatic vs parental cells (FIG. 1A); type: cell-based; details: MDA-MB-231Br3 vs parental MDA-MB-231, triplicates

Structure (SMILES) | cell death upon inhibition of GLUD (MDA-MB-231Br3 cells [1]; MDA-MB-231Br3 cells cultured in glucose-free medium, trend reverted upon addition of α-KG, FIG. 2D) | effect of incremental removal of BCAAs on sensitivity to GLUD inhibition (MDA-MB-231Br3 cells [1]; MDA-MB-231Br3 cells, glucose-free medium, 24 hour treatment, FIG. 3G) | sensitivity to GLUD inhibition, brain metastatic cells vs parental MDA-MB-231 cells (MDA-MB-231Br3 cells [1]; in the absence of glucose, FIG. 2D) | resistance of MDA-MB-231Br3 cells to chemotherapeutic reagent relative to parental cells (MDA-MB-231Br3 cells [2])
O=C(O[C@@H]1Cc2c(O)cc(O)cc2O[C@@H]1c1cc(O)c(O)c(O)c1)c1cc(O)c(O)c(O)c1 [EGCG, epigallocatechin gallate] | dose dependent cell death | significantly sensitizes | more sensitive | 
COc1cccc2c1C(=O)c1c(O)c3c(c(O)c1C2=O)C[C@@](O)(C(=O)CO)C[C@@H]3O[C@H]1C[C@H](N)[C@H](O)[C@H](C)O1 [adriamycin] |  |  |  | more resistance
CC(=O)O[C@H]1C(=O)[C@@]2(C)[C@H]([C@H](OC(=O)c3ccccc3)[C@]3(O)C[C@H](OC(=O)[C@H](O)[C@@H](NC(=O)c4ccccc4)c4ccccc4)C(C)=C1C3(C)C)[C@]1(OC(C)=O)CO[C@@H]1C[C@@H]2O [Taxol] |  |  |  | more resistance
